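In this assay, cells in 96-well plates receive the compound at five concentrations for 48 hours. Endpoints are linearly interpolated between the surrounding concentrations. The concentration for 50% growth inhibition is given as GI50.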 The source made the active and inactive calls. No stated cut-off is given here; in the data, active = GI50 up to about 1.1 µM and inactive = higher.

Among the test systems are SNB-75; SK-MEL-5; SK-OV-3; SNB-19; SF-539; OVCAR-8; A549; UO-31; A498; SW-620; IGROV-1; M14; KM12; SN12C; K562; SF-295; UACC-62; T47D; RPMI-8226; EKVX.
Common to all, as to assay: NCI tumour cell line growth inhibition, 48 h

In the case of `Cc1cn([C@H]2C[C@H](O)[C@@H](CO)O2)c(=O)nc1N`, the GI50 in the assay on SNB-75, in the assay with SK-MEL-5, with SK-OV-3, in the assay on SNB-19, in the assay with SF-539 and in the assay with OVCAR-8 was > 100 µM (inactive) each time. Also, the GI50 in the assay with A549, in the assay with UO-31, with A498, with SW-620, with IGROV-1 and with M14 was > 100 µM (inactive) in each case. Moreover, the GI50 with KM12, with SN12C, in the assay with K562, in the assay on SF-295, in the assay with UACC-62 and in the assay on T47D was > 100 µM (inactive) in each case. Besides, in the assay with RPMI-8226, the GI50 is > 100 µM (inactive).
As for `CNC(=O)OCc1c(COC(=O)NC)c(C)n(-c2ccc(Br)cc2)c1C`, the GI50 in the assay with SNB-75 is 4.17 µM (inactive); in the assay with SK-MEL-5, 13.6 µM (inactive); in the assay on SK-OV-3, 10.4 µM (inactive); in the assay on SNB-19 it was 18.7 µM (inactive); in the assay on EKVX, 27.3 µM (inactive); with SF-539, 15.4 µM (inactive). Further, the GI50 was 12.1 µM (inactive) with OVCAR-8; 16.9 µM (inactive) in the assay with A549; 5.57 µM (inactive) in the assay on UO-31; 1.36 µM (inactive) in the assay on A498; 10.7 µM (inactive) in the assay with SW-620; 3.98 µM (inactive) with IGROV-1. The GI50 in the assay on M14 is 13.2 µM (inactive); in the assay with KM12, 14.4 µM (inactive); in the assay with SN12C, 9.16 µM (inactive); in the assay on K562 it was 15.8 µM (inactive); with SF-295, 13.1 µM (inactive); in the assay on UACC-62, 4.89 µM (inactive). Further, the values for the GI50 with T47D and in the assay on RPMI-8226 were 10.2 µM (inactive) and 11 µM (inactive), respectively.
Turning to `Cn1c(=O)c2c(nc3sc4ccccc4c(=O)n32)n(C)c1=O`, the GI50 in the assay with SNB-75 was 68.4 µM (inactive); in the assay with SK-MEL-5, > 100 µM (inactive); with SK-OV-3, > 100 µM (inactive); in the assay on SNB-19 it was > 100 µM (inactive); in the assay on EKVX it was > 100 µM (inactive); in the assay on SF-539, > 100 µM (inactive). The GI50 in the assay on OVCAR-8, in the assay with UO-31, in the assay with A498, in the assay with SW-620, in the assay with IGROV-1 and in the assay with M14 was > 100 µM (inactive) throughout. Besides, the GI50 with KM12, with SN12C, with K562, in the assay with SF-295, with UACC-62 and in the assay on T47D was > 100 µM (inactive) throughout. In the assay with RPMI-8226, the GI50 is > 100 µM (inactive).
Regarding `O=C1Cc2c(-c3ccccc3)cc(-c3ccc4ccccc4c3)nc2-c2ccccc2N1`, the GI50 in the assay with SNB-75 was 0.307 µM (active); with SK-MEL-5 it was 4.74 µM (inactive); in the assay on SK-OV-3, 6.64 µM (inactive); with SNB-19, 3.06 µM (inactive); in the assay on EKVX, 7.16 µM (inactive); in the assay with SF-539 it was 4.7 µM (inactive). Besides, the GI50 in the assay on OVCAR-8 is 1.46 µM (inactive); in the assay with A549, 14.9 µM (inactive); in the assay on UO-31 it was 17.3 µM (inactive); in the assay with A498, 12.7 µM (inactive); with SW-620 it was 29.2 µM (inactive); in the assay with IGROV-1, 1.93 µM (inactive). Further, the GI50 was 9.2 µM (inactive) with M14; 4.89 µM (inactive) with KM12; 6.22 µM (inactive) in the assay on SN12C; 2.39 µM (inactive) in the assay with K562; 17.8 µM (inactive) with SF-295; 10.7 µM (inactive) with UACC-62. The figures for the GI50 with T47D and in the assay with RPMI-8226 were 18 µM (inactive) and 17.7 µM (inactive), respectively.
For the compound `CSc1cnn(CCC#N)c(=O)n1`, the GI50 was 84.9 µM (inactive) in the assay on SNB-75; 26.4 µM (inactive) with SK-MEL-5; > 100 µM (inactive) in the assay on SK-OV-3; > 100 µM (inactive) in the assay on SNB-19; > 100 µM (inactive) in the assay with EKVX; > 100 µM (inactive) with SF-539. For the same compound, the GI50 is > 100 µM (inactive) with OVCAR-8; > 100 µM (inactive) in the assay on A549; > 100 µM (inactive) in the assay with UO-31; 74 µM (inactive) with A498; 74.6 µM (inactive) in the assay on SW-620; > 100 µM (inactive) in the assay on IGROV-1. The GI50 was > 100 µM (inactive) in the assay with M14; > 100 µM (inactive) with KM12; > 100 µM (inactive) in the assay with SN12C; 33.1 µM (inactive) in the assay on K562; > 100 µM (inactive) in the assay on SF-295; > 100 µM (inactive) in the assay on UACC-62. In addition, the GI50 in the assay on T47D and in the assay on RPMI-8226 was > 100 µM (inactive) in each case.
For the compound `C/C(=N\NC(=S)N1CCCCC1)c1cccc(C)n1`, the GI50 with SNB-75 was 0.196 µM (active); with SK-MEL-5 it was < 0.0335 µM (active); in the assay on SK-OV-3 it was < 0.0146 µM (active); with SNB-19 it was < 0.0143 µM (active); in the assay with EKVX, < 0.01 µM (active); in the assay on SF-539, < 0.0404 µM (active). Moreover, the GI50 was < 0.01 µM (active) in the assay on OVCAR-8; 0.0325 µM (active) in the assay on A549; 0.0414 µM (active) with UO-31; 0.0199 µM (active) in the assay on A498; < 0.01 µM (active) in the assay with SW-620; < 0.01 µM (active) with IGROV-1. For the same compound, the GI50 was 0.0141 µM (active) with M14; < 0.0221 µM (active) with KM12; 0.0108 µM (active) in the assay on SN12C; < 0.01 µM (active) with K562; 0.056 µM (active) in the assay with SF-295; 0.0318 µM (active) in the assay with UACC-62. For the same compound, the GI50 with T47D and in the assay on RPMI-8226 was < 0.01 µM (active) in each case.
With `c1ccc([P+](Cc2ccccc2C[P+](c2ccccc2)(c2ccccc2)c2ccccc2)(c2ccccc2)c2ccccc2)cc1`, the GI50 in the assay on SNB-75 was > 100 µM (inactive); with SK-MEL-5, > 100 µM (inactive); in the assay on SK-OV-3 it was > 100 µM (inactive); in the assay with SNB-19 it was 50.6 µM (inactive); in the assay with SF-539, > 100 µM (inactive); with OVCAR-8 it was > 100 µM (inactive). In addition, the GI50 with A549 is > 100 µM (inactive); with UO-31 it was > 100 µM (inactive); in the assay with A498, > 100 µM (inactive); in the assay with SW-620 it was > 100 µM (inactive); in the assay with IGROV-1, 66.1 µM (inactive); in the assay on M14, > 100 µM (inactive). Further, the GI50 was 49.9 µM (inactive) in the assay with KM12; > 100 µM (inactive) in the assay with SN12C; 42.5 µM (inactive) with K562; 57.8 µM (inactive) in the assay with SF-295; 44.2 µM (inactive) in the assay with UACC-62; > 100 µM (inactive) in the assay with T47D. Further, the GI50 in the assay with RPMI-8226 was 6.03 µM (inactive).

The values above are taken from ChEMBL document CHEMBL1201862, “PubChem BioAssay data set” (2004).
